Reference: patent US20260293897A1, “COMPOUND CONTAINING FIVE-MEMBERED HETEROCYCLE, PREPARATION METHOD THEREFOR, AND APPLICATION THEREOF” (QINGDAO KANGQIAO PESTICIDES AND CHEMICALS GROUP CO., LTD., priority 2022, published 2026)
Like-named read-outs stand apart in the source and are kept apart here.

Tests used:
Type in all cases: in vivo
Phyllotreta striolata = Phyllotreta striolata Controlling Activity Test; details: 72 h, read-out: mortality against Phyllotreta striolata
Method: Phyllotreta striolata Controlling Activity Test:
Preparing liquid medicine according to the experimental design concentration, selecting fresh cabbage leaves, soaking the cabbage leaves for 15 s, taking out, airing, placing in a glass tube, connecting 20-25 heads of the Flea beetles adults with each tube, repeating the treatment for 3 times, investigating the death condition of the Phyllotreta striolata after 72 hours, and calculating and correcting the death rate.

[1] = tested on: Frankliniella occidentalis larvae; test: Frankliniella occidentalis Larva Controlling Activity Test; details: 72 h; for mortality at 3.25 ppm: read-out: mortality for Frankliniella occidentalis larvae; for mortality at 1.56 ppm / mortality at 3.125 ppm / mortality at 6.25 ppm: in Brassica oleracea
Method: Frankliniella occidentalis Larva Controlling Activity Test:
The test compound is dissolved in acetone and diluted to the desired concentration. 0.5 mL of the prepared acetone medicinal liquid is added into a glass tube (the inner diameter is 1 cm, the length is 10 cm), and the glass tube is repeatedly rolled on a flat table until the acetone solution is completely volatilized. Soaking cabbage leaves in the liquid medicine with the corresponding concentration for 15 s, drying, placing in a glass tube, inoculating 10-20 heads of Frankliniella occidentalis larvae in the glass tube, repeating the treatment for three times, observing in a constant-temperature observation room after the treatment, investigating the number of live insects after 72 hours, and calculating the mortality.

Tetranychus cinnabarinus = Tetranychus cinnabarinus Controlling Activity Test; details: 72 h; for mortality at 1.6 ppm: read-out: mortality against Tetranychus cinnabarinus; for mortality at 1.56 ppm / mortality at 3.125 ppm / mortality at 6.25 ppm / mortality at 12.5 ppm: in Phaseolus vulgaris
Method: Tetranychus cinnabarinus Controlling Activity Test:
The test compound was dissolved in acetone and diluted to the desired concentration with 0.1 wt % aqueous tween 80, the acetone content not exceeding 5 wt %.
One real leaf was removed from kidney bean seedlings grown to two real leaves, inoculating Tetranychus cinnabarinus, investigating the base number, performing whole plant spraying treatment by using a handheld sprayer, repeating the treatment for 3 times (the application amount of the preparation is about 0.5 g), observing in a constant-temperature observation room after the treatment, investigating the number of live mites after 72 hours, and calculating the mortality. The number of Tetranychus cinnabarinus inoculated in each time is 35-100.
Mortality%=(number of inoculated insects−number of live insects after drug administration)÷number of inoculated insects×100%

[2] = tested on: Resistant Plutella xylostella; test: Resistant Plutella xylostella Controlling Activity Test; details: for Mortality (%): 0.2 ppm, 2nd instar, resistant, radish leaves dipped 10 s, 72 h (three days); for mortality at 0.2 ppm / mortality at 1 ppm / mortality at 5 ppm: Plutella xylostella, in Raphanus sativus, 72 h
Method: Resistant Plutella xylostella Controlling Activity Test:
Leaf dipping method was used, the appropriate amount of radish leaves were dipped into the drug for 10 s, placed in a plastic petri dish padded with filter paper and dried naturally, each dish was connected with 10 heads of 2nd instar small cabbage moths, placed in the observation room at 24° C. and light (16/8 h). 72 h later observation was made, and the body of the insect was touched lightly with a brush and no reaction was regarded as a dead insect, which was repeated for three times, and a blank control was also set up without any additional agent.

[3] = tested on: Sensitive Plutella xylostella; test: Sensitive Plutella xylostella Controlling Activity Test
From the text: Sensitive Plutella xylostella Controlling Activity Test:
Test targets: Plutella xylostella, 3 rd instar larvae, a sensitive strain raised indoors.
The test method comprises the following steps: selecting fresh cabbage leaves cultivated in a greenhouse, making the cabbage leaves into round with the diameter of 3 cm by using a puncher, putting the circular blade into prepared liquid medicine to be soaked for 10 s according to the sequence from low dose to high dose of experimental design, naturally drying the cabbage leaves in the shade, putting the soaked cabbage leaves into a culture dish with filter paper and the diameter of 9 cm, inoculating regular healthy test insects, n=10, repeating the treatment for 3 times, and additionally setting blank control.

Spodoptera frugiperda = Spodoptera frugiperda Indoor Toxicity Determination Test; details: in Zea mays, read-out: mortality against Spodoptera frugiperda
From the text: Spodoptera frugiperda Indoor Toxicity Determination Test
Test targets: Spodoptera frugiperda, 3rd instar larvae, a sensitive strain raised indoors.
The test method comprises the following steps: firstly, selecting fresh corn leaves cultivated in a greenhouse, cutting the fresh corn leaves into 5 cm-long leaf segments, sequentially arranging the test design from low dose to high dose, soaking the fresh corn leaves in prepared liquid medicine for 10 s, naturally drying the fresh corn leaves in the shade, then placing the dried corn leaves in a culture dish with filter paper and the diameter of 9 cm, inoculating regular healthy test insects, n=10, repeating the treatment for 3 times, and additionally arranging blank control.

[4] = read-out: mortality against Plutella xylostella

Row | SMILES | mortality at 50 ppm (Phyllotreta striolata) [%] | mortality at 3.25 ppm [1] [%] | mortality at 1.56 ppm [1] [%] | mortality at 3.125 ppm [1] [%] | mortality at 6.25 ppm [1] [%] | mortality at 1.6 ppm (Tetranychus cinnabarinus) [%] | mortality at 1.56 ppm (Tetranychus cinnabarinus) [%] | mortality at 3.125 ppm (Tetranychus cinnabarinus) [%] | mortality at 6.25 ppm (Tetranychus cinnabarinus) [%] | mortality at 12.5 ppm (Tetranychus cinnabarinus) [%] | Mortality (%) [2] [%] | mortality at 0.2 ppm [2] [%] | mortality at 1 ppm [2] [%] | mortality at 5 ppm [2] [%] | mortality at 0.333 ppm ([3]; in Brassica oleracea, 72 h) [%] | mortality at 1 ppm ([3]; in Brassica oleracea, 72 h) [%] | mortality at 1 ppm [3, 4] [%] | mortality at 1 ppm (Spodoptera frugiperda) [%]
1 | Cc1cc(C2=NOC(c3cc(Cl)c(F)c(Cl)c3)(C(F)(F)F)C2)ccc1C(=O)NC1CCS(=O)(=O)C1.I (stereo not drawn) [Compound I-1, 4-(5-(3,5-dichloro-4-fluorophenyl)-5-(trifluoromethyl)-4,5-dihydroisoxazol-3-yl)-N-(1,1-dioxotetrahydrothiophen-3-yl)-2-methylbenzamide] | > 90 | > 90 | 100 | 100 | 100 | > 90 | 94.3 | 100 | 100 | 100 | 100 | 100 | 100 | 100 | 80 | 100 | > 90 | > 90
2 | Cc1cc(C2=NOC(c3cc(C(F)(F)F)cc(C(F)(F)F)c3)(C(F)(F)F)C2)ccc1C(=O)NC1CCS(=O)(=O)C1 (stereo not drawn) [Compound I-25, 4-(5-(3,5-bis(trifluoromethyl)phenyl)-5-(trifluoromethyl ester)-4,5-dihydroisoxazol-3-yl)-N-(1,1-dioxotetrahydrothiophen-3-yl)-2-methylbenzamide] | > 90 | > 90 | 100 | 100 | 100 | > 90 | 90.3 | 99.3 | 100 | 100 | 100 | 100 | 100 | 100 | 65 | 100 | > 90 | > 90
